Data reported in BigSolDB 2.1.

O=C(O)c1cccc(C(=O)O)n1
Details	solubility (mole fraction)
in 1,4-dioxane, 293.15 K	0.00197
in 1,4-dioxane, 298.15 K	0.00219
in 1,4-dioxane, 303.15 K	0.0025
in 1,4-dioxane, 308.15 K	0.00291
in 1,4-dioxane, 313.15 K	0.00336
in 1,4-dioxane, 318.15 K	0.00393
in 1,4-dioxane, 323.15 K	0.00481
in 1,4-dioxane, 328.15 K	0.00567
in 1,4-dioxane, 333.15 K	0.00671
in THF, 278.15 K	0.00256
in THF, 283.15 K	0.00275
in THF, 288.15 K	0.00302
in THF, 293.15 K	0.00338
in THF, 298.15 K	0.00381
in THF, 303.15 K	0.00421
in THF, 308.15 K	0.00462
in THF, 313.15 K	0.00494
in THF, 318.15 K	0.00549
in acetic acid, 293.15 K	0.000799
in acetic acid, 298.15 K	0.000876
in acetic acid, 303.15 K	0.000991
in acetic acid, 308.15 K	0.00116
in acetic acid, 313.15 K	0.00131
in acetic acid, 318.15 K	0.00156
in acetic acid, 323.15 K	0.00177
in acetic acid, 328.15 K	0.00197
in acetic acid, 333.15 K	0.00227
in acetonitrile, 278.15 K	0.000183
in acetonitrile, 283.15 K	0.000225
in acetonitrile, 288.15 K	0.000258
in acetonitrile, 293.15 K	0.000306
in acetonitrile, 298.15 K	0.000379
in acetonitrile, 303.15 K	0.000453
in acetonitrile, 308.15 K	0.000548
in acetonitrile, 313.15 K	0.000653
in acetonitrile, 318.15 K	0.000779
in ethanol, 278.15 K	0.00378
in ethanol, 288.15 K	0.00492
in ethanol, 293.15 K	0.00579
in ethanol, 298.15 K	0.00702
in ethanol, 303.15 K	0.00846
in ethanol, 308.15 K	0.00974
in ethanol, 313.15 K	0.0114
in ethanol, 318.15 K	0.0142
in ethyl acetate, 278.15 K	0.000247
in ethyl acetate, 283.15 K	0.000353
in ethyl acetate, 288.15 K	0.000602
in ethyl acetate, 293.15 K	0.000897
in ethyl acetate, 298.15 K	0.00131
in ethyl acetate, 303.15 K	0.00215
in ethyl acetate, 308.15 K	0.00329
in ethyl acetate, 313.15 K	0.00477
in ethyl acetate, 318.15 K	0.00742
in formic acid, 278.15 K	0.00285
in formic acid, 283.15 K	0.00305
in formic acid, 288.15 K	0.00326
in formic acid, 293.15 K	0.00361
in formic acid, 298.15 K	0.00408
in formic acid, 303.15 K	0.00456
in formic acid, 308.15 K	0.00507
in formic acid, 313.15 K	0.00596
in formic acid, 318.15 K	0.00694
in isopropanol, 278.15 K	0.0038
in isopropanol, 283.15 K	0.00417
in isopropanol, 288.15 K	0.00485
in isopropanol, 293.15 K	0.00555
in isopropanol, 298.15 K	0.00638
in isopropanol, 303.15 K	0.00735
in isopropanol, 308.15 K	0.00896
in isopropanol, 313.15 K	0.0106
in isopropanol, 318.15 K	0.0125
in methanol, 278.15 K	0.00449
in methanol, 283.15 K	0.0048
in methanol, 288.15 K	0.00547
in methanol, 293.15 K	0.00676
in methanol, 298.15 K	0.00874
in methanol, 303.15 K	0.0118
in methanol, 308.15 K	0.0155
in methanol, 313.15 K	0.0209
in methanol, 318.15 K	0.026
in n-propanol, 278.15 K	0.00311
in n-propanol, 283.15 K	0.00361
in n-propanol, 288.15 K	0.00433
in n-propanol, 293.15 K	0.00512
in n-propanol, 298.15 K	0.00632
in n-propanol, 303.15 K	0.00761
in n-propanol, 308.15 K	0.00892
in n-propanol, 313.15 K	0.0107
in n-propanol, 318.15 K	0.0135
in toluene, 278.15 K	0.000365
in toluene, 283.15 K	0.000582
in toluene, 288.15 K	0.000848
in toluene, 293.15 K	0.00119
in toluene, 298.15 K	0.00175
in toluene, 303.15 K	0.00253
in toluene, 308.15 K	0.00356
in toluene, 313.15 K	0.00487
in toluene, 318.15 K	0.00589
